Laboratory results as given in ChEMBL document CHEMBL1201862, “PubChem BioAssay data set” (2004).
Activity calls are given as the source filed them.

Columns and labels:
Large T antigen = Large T antigen (Simian virus 40, UniProt P03070); format: functional, Betapolyomavirus macacae;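 further: Confirmatory-stage PubChem screen for compounds that inhibit SV40 T antigen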
[1] = target: Induced myeloid leukemia cell differentiation protein Mcl-1 (Homo sapiens, UniProt Q07820); format: functional
[2] = NIH-3T3 fibroblast cytotoxicity, dose response, cytotoxicity control, cell-based, fluorescence, Alamar Blue, secondary assay (AID 2327); format: functional;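 further: NIH-3T3 mouse fibroblasts cultured with fluconazole at 8 µg/mL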
Paired box protein Pax-8 = Paired box protein Pax-8 (Homo sapiens, UniProt Q06710); test: inhibitors of PAX8-driven TPO luciferase reporter, dose response, RMG-I cells, cherry-pick (AID 687027); format: functional, cell-based;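 further: luciferase reporter driven by Pax8 target thyroperoxidase promoter measured by SteadyGlo luminescence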
Paired box protein Pax-8, sequence (Q06710 whole entry): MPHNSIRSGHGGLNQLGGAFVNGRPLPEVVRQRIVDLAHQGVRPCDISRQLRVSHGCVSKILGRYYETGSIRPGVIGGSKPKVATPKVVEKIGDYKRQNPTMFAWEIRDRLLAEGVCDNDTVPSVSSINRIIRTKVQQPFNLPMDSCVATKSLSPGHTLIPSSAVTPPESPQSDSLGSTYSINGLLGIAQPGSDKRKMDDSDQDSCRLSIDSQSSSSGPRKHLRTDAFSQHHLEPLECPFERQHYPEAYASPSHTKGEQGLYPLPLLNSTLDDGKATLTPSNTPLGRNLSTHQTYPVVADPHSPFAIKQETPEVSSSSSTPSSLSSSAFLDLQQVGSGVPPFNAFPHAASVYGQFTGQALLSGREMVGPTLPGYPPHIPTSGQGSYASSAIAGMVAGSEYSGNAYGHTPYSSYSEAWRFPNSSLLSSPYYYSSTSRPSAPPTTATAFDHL

[3] = target: T1, Short transient receptor potential channel 4 (Mus musculus, UniProt Q9QUQ5); test: mouse TRPC4 channel inhibitors, dose response, cell-based, HEK293 TRPC4/mu-opioid, Fluo-4 calcium (AID 434942); format: functional;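 further: potency of inhibitors blocking the TRPC4 calcium response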
T1 sequence (Q9QUQ5 whole entry): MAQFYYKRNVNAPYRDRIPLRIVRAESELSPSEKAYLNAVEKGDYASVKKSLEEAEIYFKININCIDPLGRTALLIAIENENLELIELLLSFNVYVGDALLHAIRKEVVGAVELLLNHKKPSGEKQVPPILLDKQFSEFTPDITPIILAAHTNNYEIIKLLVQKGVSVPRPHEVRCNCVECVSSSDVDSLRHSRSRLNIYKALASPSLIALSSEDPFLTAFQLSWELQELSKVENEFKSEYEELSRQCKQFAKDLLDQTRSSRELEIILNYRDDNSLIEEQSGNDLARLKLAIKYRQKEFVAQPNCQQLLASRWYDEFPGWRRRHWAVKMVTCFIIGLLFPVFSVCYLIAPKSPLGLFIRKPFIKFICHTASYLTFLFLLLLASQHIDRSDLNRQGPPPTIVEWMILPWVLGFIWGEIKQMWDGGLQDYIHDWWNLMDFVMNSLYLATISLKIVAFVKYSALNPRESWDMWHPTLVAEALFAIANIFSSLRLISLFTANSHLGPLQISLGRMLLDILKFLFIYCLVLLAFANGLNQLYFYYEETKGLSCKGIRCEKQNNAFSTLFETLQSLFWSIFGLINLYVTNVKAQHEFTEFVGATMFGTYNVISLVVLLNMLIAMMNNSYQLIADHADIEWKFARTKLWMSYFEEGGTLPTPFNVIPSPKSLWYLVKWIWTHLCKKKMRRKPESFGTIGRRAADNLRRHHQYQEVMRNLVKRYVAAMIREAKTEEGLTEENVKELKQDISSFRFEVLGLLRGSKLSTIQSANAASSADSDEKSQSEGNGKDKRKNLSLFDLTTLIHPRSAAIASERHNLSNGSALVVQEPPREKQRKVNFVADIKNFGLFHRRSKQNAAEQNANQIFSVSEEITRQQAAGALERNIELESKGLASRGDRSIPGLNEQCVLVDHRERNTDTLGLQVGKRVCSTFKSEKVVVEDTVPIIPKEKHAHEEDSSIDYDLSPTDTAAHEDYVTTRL

Cytochrome P450 2C19 = Cytochrome P450 2C19 (Homo sapiens, UniProt P33261); test: Cytochrome panel assay with activity outcomes. Panel member name: p450-cyp2c19 Compounds with AC50 equal or less than 10 uM are considered active; format: functional; conditions: read-out: AC50
Cytochrome P450 2C19, sequence (P33261 whole entry, the tested form may be a part): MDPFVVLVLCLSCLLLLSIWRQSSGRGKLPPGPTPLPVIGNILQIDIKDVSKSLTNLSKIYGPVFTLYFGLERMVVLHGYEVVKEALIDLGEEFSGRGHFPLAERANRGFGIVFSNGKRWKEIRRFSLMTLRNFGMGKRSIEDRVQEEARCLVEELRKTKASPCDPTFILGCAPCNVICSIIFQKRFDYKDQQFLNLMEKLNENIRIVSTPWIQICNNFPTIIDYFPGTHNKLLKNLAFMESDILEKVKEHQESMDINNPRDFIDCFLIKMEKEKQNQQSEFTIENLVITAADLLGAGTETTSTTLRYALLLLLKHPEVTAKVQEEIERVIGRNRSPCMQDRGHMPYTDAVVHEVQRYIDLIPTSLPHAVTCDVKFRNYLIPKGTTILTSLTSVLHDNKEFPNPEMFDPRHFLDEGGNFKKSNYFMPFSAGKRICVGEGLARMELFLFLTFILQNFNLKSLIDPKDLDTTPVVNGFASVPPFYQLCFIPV

Fatty acid synthase [4] = target: T2, Fatty acid synthase (Homo sapiens, UniProt P49327); test: FAS thioesterase domain inhibitors, dose response, biochemical, kinetic fluorescence intensity (AID 624326); format: functional;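 further: rate of fluorescence rise from hydrolysis of a fluorogenic O-methyl fluorescein ester substrate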
T2 sequence (P49327 whole entry, the tested form may be a part): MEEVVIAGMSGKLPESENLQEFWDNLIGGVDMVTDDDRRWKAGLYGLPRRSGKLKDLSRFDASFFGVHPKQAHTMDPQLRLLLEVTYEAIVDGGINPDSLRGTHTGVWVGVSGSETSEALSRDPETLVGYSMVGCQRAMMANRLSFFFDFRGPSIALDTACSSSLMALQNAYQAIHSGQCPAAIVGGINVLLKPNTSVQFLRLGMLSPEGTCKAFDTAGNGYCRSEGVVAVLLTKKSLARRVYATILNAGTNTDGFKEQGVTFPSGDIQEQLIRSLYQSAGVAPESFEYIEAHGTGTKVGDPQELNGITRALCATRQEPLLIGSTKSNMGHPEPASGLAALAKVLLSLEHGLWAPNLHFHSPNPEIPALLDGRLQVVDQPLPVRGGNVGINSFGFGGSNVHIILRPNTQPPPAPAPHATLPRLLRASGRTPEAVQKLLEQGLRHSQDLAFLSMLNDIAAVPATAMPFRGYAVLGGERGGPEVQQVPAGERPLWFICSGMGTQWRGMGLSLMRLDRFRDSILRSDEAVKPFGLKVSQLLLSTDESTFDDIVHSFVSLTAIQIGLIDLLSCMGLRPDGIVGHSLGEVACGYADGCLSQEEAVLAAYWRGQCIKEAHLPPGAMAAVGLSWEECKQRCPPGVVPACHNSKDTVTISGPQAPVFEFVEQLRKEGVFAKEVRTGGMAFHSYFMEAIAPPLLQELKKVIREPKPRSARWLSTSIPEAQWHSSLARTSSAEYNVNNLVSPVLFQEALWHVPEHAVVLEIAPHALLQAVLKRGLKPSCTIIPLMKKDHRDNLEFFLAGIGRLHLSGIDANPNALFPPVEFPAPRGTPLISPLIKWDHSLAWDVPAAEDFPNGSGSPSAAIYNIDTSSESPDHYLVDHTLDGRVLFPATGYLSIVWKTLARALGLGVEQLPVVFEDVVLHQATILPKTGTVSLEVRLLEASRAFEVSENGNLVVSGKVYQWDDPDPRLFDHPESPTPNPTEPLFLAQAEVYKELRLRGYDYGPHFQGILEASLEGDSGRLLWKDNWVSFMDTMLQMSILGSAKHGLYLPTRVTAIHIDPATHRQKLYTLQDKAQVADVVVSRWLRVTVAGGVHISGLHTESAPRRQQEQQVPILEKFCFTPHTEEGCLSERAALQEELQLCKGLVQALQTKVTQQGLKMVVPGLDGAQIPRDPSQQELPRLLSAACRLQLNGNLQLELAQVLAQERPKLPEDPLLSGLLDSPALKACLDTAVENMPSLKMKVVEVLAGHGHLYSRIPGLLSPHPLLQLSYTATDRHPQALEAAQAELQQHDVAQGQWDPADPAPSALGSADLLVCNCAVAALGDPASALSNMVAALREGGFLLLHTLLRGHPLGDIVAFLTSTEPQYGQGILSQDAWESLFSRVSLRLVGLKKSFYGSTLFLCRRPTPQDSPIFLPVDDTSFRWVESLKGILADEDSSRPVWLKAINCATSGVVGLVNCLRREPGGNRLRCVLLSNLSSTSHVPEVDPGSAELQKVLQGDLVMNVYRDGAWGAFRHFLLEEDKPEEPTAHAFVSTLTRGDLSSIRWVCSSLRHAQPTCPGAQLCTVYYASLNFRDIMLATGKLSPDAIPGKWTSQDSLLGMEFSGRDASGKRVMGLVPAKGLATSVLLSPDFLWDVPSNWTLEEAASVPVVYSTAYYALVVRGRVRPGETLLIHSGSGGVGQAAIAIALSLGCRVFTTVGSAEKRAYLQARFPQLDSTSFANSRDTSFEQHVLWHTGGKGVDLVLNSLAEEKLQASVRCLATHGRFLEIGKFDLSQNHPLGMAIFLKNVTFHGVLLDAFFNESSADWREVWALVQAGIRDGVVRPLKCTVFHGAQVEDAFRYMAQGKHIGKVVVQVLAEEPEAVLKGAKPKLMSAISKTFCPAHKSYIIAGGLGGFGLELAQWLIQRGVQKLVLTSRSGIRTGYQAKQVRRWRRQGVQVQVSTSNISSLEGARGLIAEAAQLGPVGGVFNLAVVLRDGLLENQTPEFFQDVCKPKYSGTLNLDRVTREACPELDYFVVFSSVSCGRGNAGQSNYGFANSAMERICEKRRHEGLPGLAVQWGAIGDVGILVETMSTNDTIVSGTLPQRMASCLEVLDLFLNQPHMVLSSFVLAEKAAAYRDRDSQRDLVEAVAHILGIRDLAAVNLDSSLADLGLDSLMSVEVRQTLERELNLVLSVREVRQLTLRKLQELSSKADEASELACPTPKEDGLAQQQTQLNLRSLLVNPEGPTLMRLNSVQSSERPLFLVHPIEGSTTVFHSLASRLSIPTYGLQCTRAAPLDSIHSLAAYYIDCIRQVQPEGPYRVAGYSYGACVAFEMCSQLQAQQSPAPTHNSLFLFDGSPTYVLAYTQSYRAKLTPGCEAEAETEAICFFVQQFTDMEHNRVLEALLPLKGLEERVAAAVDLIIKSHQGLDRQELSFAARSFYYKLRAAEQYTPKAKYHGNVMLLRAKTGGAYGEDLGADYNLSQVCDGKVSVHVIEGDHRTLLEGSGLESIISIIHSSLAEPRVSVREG

Fatty acid synthase [5] = target: T2, Fatty acid synthase; test: FAS thioesterase domain inhibitors, dose response, biochemical, endpoint fluorescence intensity, uHTS hits (AID 624327); format: functional;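 further: fluorescence from hydrolysis of an O-methyl fluorescein acyl ester substrate by the enzyme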
[6] = cytotoxicity toward NIH3T3 fibroblasts, dose response, counter-screen, cell-based, ATP luminescence, mouse fibroblasts (AID 2010); format: functional;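 further: cells exposed to compound for about 90 hours before reading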
[7] = target: T3, Heat shock factor protein 1 (Mus musculus, UniProt P38532); test: HSF1 potentiators in luciferase reporter cells, confirmation, cell-based, NIH3T3, luminescence, dose retest (AID 435004); format: functional;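 further: stress induced by proteasome inhibitor MG132 added 30 min after compound; luciferase reporter driven by HSF1 response element in NIH3T3 cells; actives raise luminescence as potentiators of the MG132 stress response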
T3 sequence (P38532 whole entry): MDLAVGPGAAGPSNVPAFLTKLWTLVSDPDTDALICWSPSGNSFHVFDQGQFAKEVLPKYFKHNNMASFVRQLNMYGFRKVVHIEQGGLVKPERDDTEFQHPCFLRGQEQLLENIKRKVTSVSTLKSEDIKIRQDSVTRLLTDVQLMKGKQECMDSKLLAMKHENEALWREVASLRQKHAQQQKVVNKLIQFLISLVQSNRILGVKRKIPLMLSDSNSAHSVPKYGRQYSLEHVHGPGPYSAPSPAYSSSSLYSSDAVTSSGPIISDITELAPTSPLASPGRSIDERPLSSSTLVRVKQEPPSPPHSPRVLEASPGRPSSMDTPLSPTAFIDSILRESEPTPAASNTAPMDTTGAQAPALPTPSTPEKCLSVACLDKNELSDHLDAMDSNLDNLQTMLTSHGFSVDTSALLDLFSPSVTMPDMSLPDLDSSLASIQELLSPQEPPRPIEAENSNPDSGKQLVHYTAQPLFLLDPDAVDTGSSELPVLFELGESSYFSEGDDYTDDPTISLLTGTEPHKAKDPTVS

[8] = inhibitors of intracellular T. cruzi replication, confirmation, NIH3T3 host cells, beta-gal luminescence (AID 2044); format: functional, cell-based;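 further: intracellular parasites grown in NIH/3T3 mouse fibroblasts as host cells; luminescent beta-galactosidase reporter signal from transgenic T. cruzi replicating inside host cells; inhibitors lower the luminescence signal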
Protein skinhead-1 = target: T4, Protein skinhead-1 (Caenorhabditis elegans, UniProt P34707); format: functional
T4 sequence (P34707 whole entry): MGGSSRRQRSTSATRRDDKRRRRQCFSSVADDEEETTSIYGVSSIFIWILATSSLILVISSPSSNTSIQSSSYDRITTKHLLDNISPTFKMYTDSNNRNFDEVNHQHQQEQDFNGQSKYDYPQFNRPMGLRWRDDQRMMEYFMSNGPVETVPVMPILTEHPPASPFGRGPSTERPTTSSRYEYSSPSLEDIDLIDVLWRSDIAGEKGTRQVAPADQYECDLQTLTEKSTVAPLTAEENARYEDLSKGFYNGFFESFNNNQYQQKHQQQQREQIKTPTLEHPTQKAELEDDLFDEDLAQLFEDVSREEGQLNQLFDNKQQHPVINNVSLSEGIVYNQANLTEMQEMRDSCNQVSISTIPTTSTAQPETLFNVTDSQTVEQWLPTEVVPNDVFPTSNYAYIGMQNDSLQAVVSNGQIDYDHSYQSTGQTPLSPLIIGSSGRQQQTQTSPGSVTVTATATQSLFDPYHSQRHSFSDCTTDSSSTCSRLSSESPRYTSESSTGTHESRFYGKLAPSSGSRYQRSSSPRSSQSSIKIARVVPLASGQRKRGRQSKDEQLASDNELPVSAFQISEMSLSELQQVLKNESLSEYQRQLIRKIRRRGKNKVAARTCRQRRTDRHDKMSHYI

Induced myeloid leukemia cell differentiation protein Mcl-1, sequence (Q07820 whole entry): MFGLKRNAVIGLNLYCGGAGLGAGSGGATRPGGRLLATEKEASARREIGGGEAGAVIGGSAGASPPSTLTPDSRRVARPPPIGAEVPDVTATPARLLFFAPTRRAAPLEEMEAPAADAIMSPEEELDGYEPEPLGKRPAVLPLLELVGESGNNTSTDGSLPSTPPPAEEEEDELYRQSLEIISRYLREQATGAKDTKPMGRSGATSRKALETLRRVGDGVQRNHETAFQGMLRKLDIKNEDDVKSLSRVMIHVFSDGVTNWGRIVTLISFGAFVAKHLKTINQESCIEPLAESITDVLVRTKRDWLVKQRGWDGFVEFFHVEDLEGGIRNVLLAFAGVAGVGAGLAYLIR
Large T antigen, sequence (P03070 whole entry): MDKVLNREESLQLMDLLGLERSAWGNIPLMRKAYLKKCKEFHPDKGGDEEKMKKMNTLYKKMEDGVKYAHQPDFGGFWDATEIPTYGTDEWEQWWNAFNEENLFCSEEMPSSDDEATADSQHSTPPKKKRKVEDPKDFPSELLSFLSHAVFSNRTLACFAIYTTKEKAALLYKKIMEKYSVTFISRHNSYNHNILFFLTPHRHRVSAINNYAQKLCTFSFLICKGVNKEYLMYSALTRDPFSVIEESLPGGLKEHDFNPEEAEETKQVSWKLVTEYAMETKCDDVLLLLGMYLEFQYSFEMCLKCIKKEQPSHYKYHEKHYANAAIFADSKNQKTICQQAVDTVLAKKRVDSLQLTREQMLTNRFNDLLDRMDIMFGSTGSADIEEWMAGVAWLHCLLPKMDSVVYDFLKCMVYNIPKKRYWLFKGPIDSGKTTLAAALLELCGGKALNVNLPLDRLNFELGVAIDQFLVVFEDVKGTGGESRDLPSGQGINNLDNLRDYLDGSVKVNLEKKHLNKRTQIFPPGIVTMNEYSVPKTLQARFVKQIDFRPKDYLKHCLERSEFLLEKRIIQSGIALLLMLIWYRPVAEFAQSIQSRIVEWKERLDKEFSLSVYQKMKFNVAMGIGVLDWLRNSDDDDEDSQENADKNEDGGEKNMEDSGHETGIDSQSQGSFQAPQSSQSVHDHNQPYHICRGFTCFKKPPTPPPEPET

Question: With O=S(=O)(c1ccc(NC(=S)N2CCN(c3ccc(O)cc3)CC2)cc1)N1CCOCC1 as the compound, how does the IC50 (Large T antigen) read?
Answer: 9.69 µM (active)

Question: With Cc1cccc(NC(=O)CN2C(=O)N/C(=C/c3ccc(C)o3)C2=O)c1 as the compound, how does the IC50 [1] read?
Answer: < 0.4 µM (not active)

Question: For CCc1ccc(CNC(=O)C2CCCN(c3nnc(C)c4c(C)n(-c5ccccc5)nc34)C2)cc1 (stereo not drawn), which EC50 [2] is on record?
Answer: 14.7 µM (inconclusive)

Question: And the AC50 (Paired box protein Pax-8)?
Answer: 9.17 µM (active)

Question: Which EC50 [3] does the source give for CCCc1nc(SC2CCCC2)c2c(=O)n(C)c(=O)n(C)c2n1 here?
Answer: 4.73 µM (active)

Question: For CN(C)c1ccc(C(=O)c2ccc(N(C)C)c(N)c2)cc1N, which IC50 (Large T antigen) is on record?
Answer: 19.3 µM (active)

Question: Which IC50 [1] does the source give for Cc1ccc(C(=O)Nc2ccc(N3CCCC3)cc2)c(C)c1 here?
Answer: 7.06 µM (not active)

Question: Which AC50 (Cytochrome P450 2C19) does the source give for CCCCCc1nc2c(O)nc3ccccc3c2o1 here?
Answer: 3.98 µM (inconclusive)

Question: What about the IC50 [1] of the same compound?
Answer: 28.3 µM (not active)

Question: What does the source list for Cc1c(C(=O)OCCOc2ccc(Br)cc2)sc(=S)n1C?
Answer: IC50 (Fatty acid synthase [4]): 5.67 µM (active); IC50 (Fatty acid synthase [5]): 7.07 µM (active)

Question: For O=C(Nc1ccccc1N1CCN(C(=O)c2ccc(Cl)cc2)CC1)c1cccc([N+](=O)[O-])c1, which EC50 [6] is on record?
Answer: > 60 µM (not active)

Question: What about the EC50 [7] of the same compound?
Answer: > 260 µM (inactive)

Question: What about the EC50 [3] of the same compound?
Answer: 0.376 µM (active)

Question: And the EC50 [8]?
Answer: 1.34 µM (active)

Question: Which results are given for CC1CCN(C(C)C(=O)Nc2ccccc2-c2ccccc2)CC1 (stereo not drawn)?
Answer: IC50 (Protein skinhead-1): > 100 µM (inactive); EC50 [3]: 5.31 µM (active)

Question: Which EC50 [3] does the source give for CC(C)Cc1cc(CN2CCCC(CO)(Cc3cccc(Cl)c3)C2)[nH]n1 (stereo not drawn) here?
Answer: 2.11 µM (active)

Question: What does the source list for C[C@@]12C(=O)Nc3cc(F)ccc3C(=O)N1[C@H]1c3ccccc3OC[C@@H]1[C@@H]2c1ccccc1?
Answer: IC50 (Fatty acid synthase [4]): 20.3 µM (inactive); IC50 (Fatty acid synthase [5]): 18.1 µM (active)

Question: For CCn1nc(C)c(CN2CCCC(CO)(Cc3cccc(Cl)c3)C2)c1C (stereo not drawn), which EC50 [6] is on record?
Answer: > 30 µM (not active)

Question: And the EC50 [3]?
Answer: 1.06 µM (active)

Question: And the EC50 [8]?
Answer: 0.247 µM (active)
